Measurements published in PMC12746157, “Light-Regulated Agonists Spatiotemporally Activating the Vitamin D Receptor Mitigate Psoriasis-like Inflammation in Mice without Inducing Hypercalcemia” (ACS Central Science, 2025).
Entries after “also recorded” stand apart in the source; their conditions may differ.

Assays:
[1] = target: T1, VDR-LBD (Homo sapiens, UniProt P11473); test: HDX-MS of VDR-LBD with ligand in the dark and under 365 nm light; format: binding
T1 construct: VDR-LBD protein stock solution was prepared in 20 mM HEPES buffer
T1 sequence (P11473 127-423 limits assumed): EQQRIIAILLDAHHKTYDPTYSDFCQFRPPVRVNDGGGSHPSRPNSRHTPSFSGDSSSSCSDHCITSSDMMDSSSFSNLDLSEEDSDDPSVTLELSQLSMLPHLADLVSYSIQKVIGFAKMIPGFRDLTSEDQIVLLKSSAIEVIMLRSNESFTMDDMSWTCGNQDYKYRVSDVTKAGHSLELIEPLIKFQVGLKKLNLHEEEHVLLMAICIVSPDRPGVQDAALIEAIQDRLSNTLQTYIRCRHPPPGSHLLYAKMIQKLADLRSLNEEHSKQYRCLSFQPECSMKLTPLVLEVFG
Protocol: Although previously used to study the effect of a cyclic azopeptide in its activated cis state, here we studied the target dynamics upon direct application of the light to the sample. To this aim, HDX-MS was applied for the characterization of the binding mode and modulation of receptor dynamics of the racemic compound PhotoVDRM. VDR-LBD was incubated alone (to provide an apo control for each experiment) or with an excess of compound PhotoVDRM and exposed to deuterium labeling for various periods of time, from 10 s to 2 h, in the dark and illuminated with light at 365 nm. […] As an additional control experiment, we also evaluated the HDX-MS of VDR-LBD in the presence and absence of a standard agonist, compound LSN2148936, in the dark and under illumination conditions. […] In order to permit direct comparison, including mathematical manipulation of the data in all these experiments, the observed deuterium incorporation percentages were converted to rate constants (expressed as −log10(k)) using our previously published Bayesian approach.
(Perkin Elmer, now Revvity, Cat.No. 6006290) in duplicate. Immediately, 54 µL of the protein solution were added and the plate was covered and incubated for 30 min at room temperature in the dark. Meanwhile, the plate with the 10X dilutions was illuminated at 365 nm for 3 min in a 96-well DED array plate (LEDA Teleopto), to allow the photoconversion of the molecules to their cis configuration. The illuminated compounds were mixed with the protein solution and incubated as described above for the plate in the dark. After the incubation time, the counts of both, the dark and illuminated plates, were measured in a Tecan Spark 20M Multimode plate reader with defined settings (excitation: 680 nm, emission: 520-620 nm, excitation time: 100ms, integration time: 300 ms). Biotinylated-His6 peptide (PerkinElmer) was used as a quality control reagent for AlphaScreen® assays and to evaluate compound interaction with the method. […] Dose-response curves and EC50 values were calculated with Graphpad software. […]

[2] = Serum total calcium measurement in mice (Arsenazo III); format: in vivo; details: after treatment i.p. days 2-4 (LSN2148936 0.005 mg/kg, PhotoVDRM 0.5 mg/kg), 420 or 520 nm

For `Cc1cc(OCC(O)C(C)(C)C)ccc1N=Nc1cccc(-c2ccc(C(=O)O)cc2)c1` (stereo not drawn) [Compound 11b], the “protection to H/D exchange” value ([1]; in the dark, vs under light) was “much lower”, the “protection to H/D exchange” value ([1]; under 365 nm light, vs reference agonist LSN2148936) was “comparable” and the “effect on calcium homeostasis (serum total calcium)” value [2] was “null impact; also recorded: without concomitant hypercalcemia”.
